Reference: US11634425B2, “Pharmaceutical compounds” (priority 2019, dated 2023)

What was measured:
RSV A2 = experiment: RSV plaque reduction assay; assay type: cell-based, respiratory syncytial virus (RSV); conditions: human respiratory syncytial virus, HepG2, Hep-G2 cells, mean of at least two experiments
Description: (§1) Compounds were subjected to RSV plaque reduction assays according to the following protocol. Plaque EC50 and cell toxicity CC50 values are a mean of at least two experiments and figures are rounded to whole units.
Hep-G2 cells (ECACC, 85011430) were passaged in flasks and seeded in 24-well plates in DMEM containing antibiotics and supplemented with 10% FBS. During inoculation and subsequent incubation, cells were cultured in DMEM containing 2% FBS. 100 plaque forming unit/well of RSV (RSV A2 ECACC, 0709161v) was mixed with eight serial dilutions of compound. Subsequently, 100 μL of the virus/compound mixtures was added to confluent Hep-G2 cell monolayers. The cells and virus/compound mixtures were incubated at 37° C. in a humidified 5% CO2 incubator for 2 h prior to removal of the inoculum and addition of 1 mL of overlay (DMEM containing 2% FBS and 0.8% CMC) containing compound dilutions. The cells and were incubated at 37° C. in a humidified 5% CO2 incubator for 2 days.
Cells were washed with PBS before adding 75/25% […] EtOH/MeOH, for 3 min. Fixative was removed and plates were washed with PBS. A pre-titrated amount of the primary antibody was added in 200 μL PBS/2% milk powder, and plates incubated for 90 min at 37° C. The plates were washed 3 times with PBS/0.05% Tween20 before addition of rabbit anti-goat horse radish peroxidase in 200 μL PBS/2% milk powder, and incubated for 1 h at 37° C. Following three wash steps with PBS/0.05% Tween20, 200 μL ready-to-use TrueBlue was added and plates were incubated at rt for 10-15 min before washing with water. After removal of water, plates were air-dried in the dark.
(§2) Plates were scanned and analysed using the Immunospot S6 Macro analyser, which is equipped with BioSpot analysis software for counting immunostained plaques (virospots). Plaque counts were used to calculate % c infection relative to the mean of the plaque count in the virus control wells for RSV. The EC50 value was calculated as 50% reduction in signal, respectively, by interpolation of inhibition curves fitted with a 4-parameter nonlinear regression with a variable slope in Dotmatics. Plaque EC50 and cell toxicity CC50 values are a mean of at least two experiments and figures are rounded to whole units.

Cell cytotoxicity (CC50) = assay type: cell-based; conditions: human; mean of at least two experiments
Description: as §1, §2

COc1ccc2nc(-c3ccc(C)cn3)c(C(=O)N[C@H]3N=C(c4ccccc4)c4cccc(F)c4NC3=O)n2n1 [Example 120, N-[(3S)-9-fluoro-2-oxo-5-phenyl-1,3-dihydro-1,4-benzodiazepin-3-yl]-6-methoxy-2-(6-methyipyridin-3-yl)imidazo[1,2-b]pyridazine-3-carboxamide]
EC50 (RSV A2): 101 nM
CC50 (Cell cytotoxicity (CC50)): > 25000 nM

O=C(N[C@H]1N=C(c2ccccc2)c2ccccc2NC1=O)c1c(-c2ccccc2F)nn2ccc(N3CCCC3)nc12 [Example 41, 2-(2-Fluorophenyl)-N-[(3S)-2-oxo-5-phenyl-1,3-dihydro-1,4-benzodiazepin-3-yl]-5-pyrrolidin-1-ylpyrazolo[1,5-a]pyrimidine-3-carboxamide]
EC50 (RSV A2): 80 nM
CC50 (Cell cytotoxicity (CC50)): > 25000 nM

CCOc1ccc2nc(-c3ccc(CC)nc3)c(C(=O)N[C@H]3N=C(c4ccccc4)c4cccc(F)c4NC3=O)n2n1 [Example 122, 6-Ethoxy-2-(6-ethylpyridin-3-yl)-N-[(3S)-9-fluoro-2-oxo-5-phenyl-1,3-dihydro-1,4-benzodiazepin-3-yl]imidazo[1,2-b]pyridazine-3-carboxamide]
EC50 (RSV A2): 100 nM
CC50 (Cell cytotoxicity (CC50)): > 25000 nM

CCc1ccc(-c2nn3cccnc3c2C(=O)N[C@H]2N=C(c3ccccc3)c3ccccc3NC2=O)c(C)n1 [Example 56]
EC50 (RSV A2): 63 nM
CC50 (Cell cytotoxicity (CC50)): > 25000 nM

C[C@H]1COCCN1c1ccc(-c2nn3cccnc3c2C(=O)N[C@H]2N=C(c3ccccc3)c3cccc(F)c3NC2=O)cn1 (single isomer, unassigned) [Example 125, N-[(3S)-9-fluoro-2-oxo-5-phenyl-2,3-dihydro-1H-1,4-benzodiazepin-3-yl]-2-{6-[(3S*)-3-methylmorpholin-4-yl]pyridin-3-yl}pyrazolo[1,5-a]pyrimidine-3-carboxamide]
EC50 (RSV A2): 87 nM
CC50 (Cell cytotoxicity (CC50)): > 25000 nM

Cn1ccc2cc(-c3nn4cccnc4c3C(=O)N[C@H]3N=C(c4ccccc4)c4cccc(F)c4NC3=O)cnc21 [Example 71, N-[(3S)-9-fluoro-2-oxo-5-phenyl-1,3-dihydro-1,4-benzodiazepin-3-yl]-2-(1-methylpyrrolo[2,3-b]pyridin-5-yl)pyrazolo[1,5-a]pyrimidine-3-carboxamide]
EC50 (RSV A2): 101 nM
CC50 (Cell cytotoxicity (CC50)): > 25000 nM

Cc1ccc2nc(-c3ccccc3)c(C(=O)N[C@H]3N=C(c4ccccc4)c4ccccc4NC3=O)n2n1 [Example 92, 6-Methyl-N-[(3S)-2-oxo-5-phenyl-1,3-dihydro-1,4-benzodiazepin-3-yl]-2-phenylimidazo[1,2-b]pyridazine-3-carboxamide]
EC50 (RSV A2): 48 nM
CC50 (Cell cytotoxicity (CC50)): > 25000 nM

CC(C)c1ccc(-c2nn3cccnc3c2C(=O)N[C@H]2N=C(c3ccccc3)c3ccccc3NC2=O)cn1 [Example 58, 2-(6-Propan-2-ylpyridin-3-yl)-N-[(3S)-2-oxo-5-phenyl-1,3-dihydro-1,4-benzodiazepin-3-yl]pyrazolo[1,5-a]pyrimidine-3-carboxamide]
EC50 (RSV A2): 69 nM
CC50 (Cell cytotoxicity (CC50)): > 25000 nM

CCNc1ccc(-c2nn3cccnc3c2C(=O)N[C@H]2N=C(c3ccccc3)c3cccc(F)c3NC2=O)c(F)n1 [Example 66, 2-[6-(Ethylamino)-2-fluoropyridin-3-yl]-N-[(3S)-9-fluoro-2-oxo-5-phenyl-1,3-dihydro-1,4-benzodiazepin-3-yl]pyrazolo[1,5-a]pyrimidine-3-carboxamide]
EC50 (RSV A2): 13 nM
CC50 (Cell cytotoxicity (CC50)): > 25000 nM

Cc1cc(-c2nc3ccc(C)nn3c2C(=O)N[C@H]2N=C(c3ccccc3)c3ccccc3NC2=O)ccn1 [Example 97, 6-Methyl-2-(2-methylpyridin-4-yl)-N-[(3S)-2-oxo-5-phenyl-1,3-dihydro-1,4-benzodiazepin-3-yl]imidazo[1,2-b]pyridazine-3-carboxamide]
EC50 (RSV A2): 49 nM
CC50 (Cell cytotoxicity (CC50)): > 25000 nM

O=C(N[C@H]1N=C(c2ccccc2)c2ccccc2NC1=O)c1c(-c2cc(F)ccc2F)nn2cccnc12 [Example 6, 2-(2,5-Difluorophenyl)-N-[(3S)-2-oxo-5-phenyl-1,3-dihydro-1,4-benzodiazepin-3-yl]pyrazolo[1,5-a]pyrimidine-3-carboxamide]
EC50 (RSV A2): 94 nM
CC50 (Cell cytotoxicity (CC50)): > 25000 nM

COc1ccc2nc(-c3ccccc3)c(C(=O)N[C@H]3N=C(c4ccccc4)c4ccccc4NC3=O)n2n1 [Example 111, 6-Methoxy-N-[(3S)-2-oxo-5-phenyl-1,3-dihydro-1,4-benzodiazepin-3-yl]-2-phenylimidazo[1,2-b]pyridazine-3-carboxamide]
EC50 (RSV A2): 48 nM
CC50 (Cell cytotoxicity (CC50)): > 25000 nM

CC(C)Nc1ccc(-c2nn3cccnc3c2C(=O)N[C@H]2N=C(c3ccccc3)c3ccccc3NC2=O)cn1 [Example 73, N-[(3S)-2-oxo-5-phenyl-1,3-dihydro-1,4-benzodiazepin-3-yl]-2-[6-(propan-2-ylamino)pyridin-3-yl]pyrazolo[1,5-a]pyrimidine-3-carboxamide]
EC50 (RSV A2): 45 nM
CC50 (Cell cytotoxicity (CC50)): > 25000 nM

Cc1ccc(F)c(-c2nn3cccnc3c2C(=O)N[C@H]2N=C(c3ccccc3)c3cccc(F)c3NC2=O)c1 [Example 26, 2-(2-Fluoro-5-methylphenyl)-N-[(3S)-9-fluoro-2-oxo-5-phenyl-1,3-dihydro-1,4-benzodiazepin-3-yl]pyrazolo[1,5-a]pyrimidine-3-carboxamide]
EC50 (RSV A2): 53 nM
CC50 (Cell cytotoxicity (CC50)): 8770 nM

[2H]C([2H])([2H])Oc1ccc2nc(-c3ccccc3)c(C(=O)N[C@H]3N=C(c4ccccc4)c4ccccc4NC3=O)n2n1 [Example 112, N-[(3S)-2-oxo-5-phenyl-1,3-dihydro-1,4-benzodiazepin-3-yl]-2-phenyl-6-(trideuteriomethoxy)imidazo[1,2-b]pyridazine-3-carboxamide]
EC50 (RSV A2): 50 nM
CC50 (Cell cytotoxicity (CC50)): > 25000 nM

CC1COCCN1c1ccc(-c2nn3cccnc3c2C(=O)N[C@H]2N=C(c3ccccc3)c3cccc(F)c3NC2=O)cn1 (stereo partly drawn) [Example 68, 2-[6-(3-Methylmorpholin-4-yl)pyridin-3-yl]-N-[(3S)-9-fluoro-2-oxo-5-phenyl-1,3-dihydro-1,4-benzodiazepin-3-yl]pyrazolo[1,5-a]pyrimidine-3-carboxamide]
EC50 (RSV A2): 115 nM
CC50 (Cell cytotoxicity (CC50)): > 25000 nM

Cc1ccc2nc(-c3ccncc3F)c(C(=O)N[C@H]3N=C(c4ccccc4)c4ccccc4NC3=O)n2n1 [Example 99, 2-(3-Fluoropyridin-4-yl)-6-methyl-N-[(3S)-2-oxo-5-phenyl-1,3-dihydro-1,4-benzodiazepin-3-yl]imidazo[1,2-b]pyridazine-3-carboxamide]
EC50 (RSV A2): 51 nM
CC50 (Cell cytotoxicity (CC50)): > 25000 nM

O=C(N[C@H]1N=C(c2ccccc2)c2ccccc2NC1=O)c1c(-c2ccc(N3CCCC3)cc2F)nn2cccnc12 [Example 45, 2-(2-Fluoro-4-pyrrolidin-1-ylphenyl)-N-[(3S)-2-oxo-5-phenyl-1,3-dihydro-1,4-benzodiazepin-3-yl]pyrazolo[1,5-a]pyrimidine-3-carboxamide]
EC50 (RSV A2): 103 nM
CC50 (Cell cytotoxicity (CC50)): > 25000 nM

CC(C)Nc1ccc(-c2nn3cccnc3c2C(=O)N[C@H]2N=C(c3ccccc3)c3ccccc3NC2=O)cc1 [Example 13, N-[(3S)-2-Oxo-5-phenyl-1,3-dihydro-1,4-benzodiazepin-3-yl]-2-[4-(propan-2-ylamino)phenyl]pyrazolo[1,5-a]pyrimidine-3-carboxamide]
EC50 (RSV A2): 94 nM
CC50 (Cell cytotoxicity (CC50)): > 25000 nM

O=C(N[C@H]1N=C(c2ccccc2)c2cccc(F)c2NC1=O)c1c(-c2ccccc2)nc2ccc(N3CCOCC3)nn12 [Example 83, N-[(3S)-9-fluoro-2-oxo-5-phenyl-1,3-dihydro-1,4-benzodiazepin-3-yl]-6-morpholin-4-yl-2-phenylimidazo[1,2-b]pyridazine-3-carboxamide]
EC50 (RSV A2): 118 nM
CC50 (Cell cytotoxicity (CC50)): > 25000 nM

Cc1ccc(-c2nn3cccnc3c2C(=O)N[C@H]2N=C(c3ccccc3)c3ccccc3NC2=O)cn1 [Example 49, 2-(6-Methylpyridin-3-yl)-N-[(3S)-2-oxo-5-phenyl-1,3-dihydro-1,4-benzodiazepin-3-yl]pyrazolo[1,5-a]pyrimidine-3-carboxamide]
EC50 (RSV A2): 100 nM
CC50 (Cell cytotoxicity (CC50)): > 25000 nM

COc1cccc(-c2nn3cccnc3c2C(=O)N[C@H]2N=C(c3ccccc3)c3cccc(F)c3NC2=O)c1F [Example 9, 2-(2-Fluoro-3-methoxyphenyl)-N-[(3S)-9-fluoro-2-oxo-5-phenyl-1,3-dihydro-1,4-benzodiazepin-3-yl]pyrazolo[1,5-a]pyrimidine-3-carboxamide]
EC50 (RSV A2): 73 nM
CC50 (Cell cytotoxicity (CC50)): > 25000 nM

Cc1cncc(-c2nc3ccc(C)nn3c2C(=O)N[C@H]2N=C(c3ccccc3)c3cccc(F)c3NC2=O)c1 [Example 103, N-[(3S)-9-fluoro-2-oxo-5-phenyl-1,3-dihydro-1,4-benzodiazepin-3-yl]-6-methyl-2-(5-methylpyridin-3-yl)imidazo[1,2-b]pyridazine-3-carboxamide]
EC50 (RSV A2): 82 nM
CC50 (Cell cytotoxicity (CC50)): > 25000 nM
